One assay has as its target T1, cyclophilin A (Cyp A) (Homo sapiens, UniProt P62937).
T1 construct: purchased Sigma C3805
The assay can be described thus: Protease-free PPIase assay, cyclophilin A. The assay is classed as biochemical. Summed up:
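Protease-free cis-trans isomerisation: 2 nM recombinant human cyclophilin A with 60 μM succinimide-peptide substrate in 35 mM HEPES pH 7.8 plus DTT, at 10.0 °C, max 0.5% DMSO. Absorbance at 330 nm was fitted to first-order kinetics, background subtracted, and catalytic rates versus inhibitor concentration gave Ki.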

Another assay concerns the target cyclophilin D (Cyp D) (Homo sapiens, UniProt P30405). The assay can be described thus: Protease-free PPIase assay, cyclophilin D. The class given is biochemical. Summed up:
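Cis-trans isomerization of a succinimide-peptide substrate (60 µM final) by 2 nM enzyme was followed at 330 nm in 35 mM HEPES pH 7.8 with 50 µM DTT, stirred at 10.0 °C, DMSO ≤0.5%. First-order rate constants minus background were fitted against inhibitor concentration to give Ki.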

pKi: −log10 of the molar value.

Chain of cyclophilin D (Cyp D) (P30405 30-207): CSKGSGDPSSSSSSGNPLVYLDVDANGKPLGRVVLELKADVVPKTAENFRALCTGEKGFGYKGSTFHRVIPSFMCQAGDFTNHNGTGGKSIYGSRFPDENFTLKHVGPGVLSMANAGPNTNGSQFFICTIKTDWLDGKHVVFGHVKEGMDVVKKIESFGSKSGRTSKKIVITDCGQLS
T1 sequence (P62937 whole entry): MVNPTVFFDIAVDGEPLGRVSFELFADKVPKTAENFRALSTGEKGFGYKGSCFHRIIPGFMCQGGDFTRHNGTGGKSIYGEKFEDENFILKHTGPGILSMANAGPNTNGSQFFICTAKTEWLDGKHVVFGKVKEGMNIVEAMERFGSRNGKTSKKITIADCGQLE

A word on the pKi: it is −log10 of the Ki, conventionally taken in molar units. Low readings indicate a large Ki, high ones a small Ki. Consider `CC(C)CC1NC(=O)[C@H](CC(C)C)N(C)C(=O)CN(C)C(=O)C([C@@H](C)O)NC(=O)C([C@H](O)[C@H](C)CCN2CCOCC2)N(C)C(=O)C(C(C)C)N(C)C(=O)C(CC(C)C)NC(=O)C(CC(C)C)N(C)C(=O)C(C(C)C)OC(=O)C(C)NC(=O)C(CC(C)C)N(C)C1=O` (stereo in doubt) [Example 2, cyclo-[(3R,4R,5S)-4-(hydroxy)-3-methyl-5-(methylamino)-1-N-morpholino-hexanoic acid-Thr-Sar-MeLeu-Leu-MeLeu-Ala-D-Hiv-MeLeu-Leu-MeVal]], for which the pKi at cyclophilin A (Cyp A) was 8.04; at cyclophilin D (Cyp D), 8.19.

For the origin of these results see patent US9382295B2, “Cyclic depsipeptide compounds and their uses” (Cypralis Limited, priority 2012, dated 2016).
